Values joined by “and” are separate entries in the source; they are usually repeats but may differ in a detail not shown here. Equal values may be shown once. Read-outs that look alike come from different tables or passages of the source.
Key:
[1] = test system: herpes labialis eruptions; settings: in vivo
Source text: 23.4—Application of Gelled Alcohol
In this example some of the gelled compositions contained 1.6% by weight HPC and others contained 1.6% by weight EHEC.

[2] = test system: herpes labialis eruptions; settings: glass container; for symptom relief: two early phases
[3] = test system: herpes labialis eruptions; assay: Herpes labialis eruptions, prolonged contact with impregnated cotton (Example 23.2); type: in vivo, human; settings: for symptom relief: intensive depot treatment
[4] = test system: herpes simplex virus (HSV) type 1; assay: Inactivation of herpes simplex virus in infected MRC-5 cells by alcohols (Example 25); type: cell-based; settings: for HSV - CPE after 44 hours with the detecting cell-layer: duplicate wells; for inactivation of herpes simplex virus (in words): HSV type 1 infected MRC-5 cells; on HSV - CPE after 44 hours with the detecting cell-layer: key: 0: no CPE; 1: a few; 2: several; 3: all cells infected with HSV
Protocol: Ethanol is an accepted disinfectant for viruses with an envelope. The purpose of this study was to measure the inactivating effect of “short-chained alcohols” on virus-infected cells.
Four 96 well plates with confluent MRC-5 cell were infected with herpes simplex virus (HSV) type 1. After appearance of 50% cytopathic effect (CPE), the culture medium was removed, and rows of 12 wells were treated with 25 μl/well of the alcohols or buffer after the following scheme: The first row with undiluted, and the following with 96%, 90%, 80%, 70%, 60% and 50% alcohol, respectively—all dilutions performed in buffer (PBS). To the last row was added buffer. After 2, 4, 8, 16 and 32 min, respectively, two wells in each row were emptied and the cells overlaid with PBS. The plate was then frozen at —80° C. Afterwards the wells were seeded with a detection layer of MRC-5 cells and the plates were placed at 37° C. for 44 hours. Virus surviving the treatment with alcohol was detected by the appearance of CPE, characteristic for HSV in the detection monolayer.

[5] = test system: recurrent herpes genitalia, herpes febrilis (labialis); settings: nonimmunocompromised patients; cited from earlier work
[6] = alcohol undiluted, 2 min with alcohol

CCO [Ethanol 95%]
pain reaction on application in the ulceration phase [1]: slight pain of short duration | eruption abortive effect [2]: clearly observed | eruption shortening effect [2]: likewise observed | symptom relief [2]: very strong symptom relief | symptom relief [3]: palliative effect on symptom relief

CCO [Ethanol 90%]
pain reaction on application in the ulceration phase [1]: less pain or shorter duration

CC(C)O [Isopropanol]
HSV - CPE after 44 hours with the detecting cell-layer ([4]; 50% alcohol in PBS, 2 min): 3 and 2 | HSV - CPE after 44 hours with the detecting cell-layer ([4]; 50% alcohol in PBS, 4 min): 3 and 2 | HSV - CPE after 44 hours with the detecting cell-layer ([4]; 50% alcohol in PBS, 8 min): 3 | HSV - CPE after 44 hours with the detecting cell-layer ([4]; 50% alcohol in PBS, 16 min): 3 and 2 | HSV - CPE after 44 hours with the detecting cell-layer ([4]; 50% alcohol in PBS, 32 min): 3 | HSV - CPE after 44 hours with the detecting cell-layer ([4]; 60% alcohol in PBS, 2 min): 2 | HSV - CPE after 44 hours with the detecting cell-layer ([4]; 60% alcohol in PBS, 4 min): 1 | HSV - CPE after 44 hours with the detecting cell-layer ([4]; 60% alcohol in PBS, 8 min): 2 and 1 | HSV - CPE after 44 hours with the detecting cell-layer ([4]; 60% alcohol in PBS, 16 min): 2 and 3 | HSV - CPE after 44 hours with the detecting cell-layer ([4]; 60% alcohol in PBS, 32 min): 3 | HSV - CPE after 44 hours with the detecting cell-layer ([4]; 70% alcohol in PBS, 2 min): 2 | HSV - CPE after 44 hours with the detecting cell-layer ([4]; 70% alcohol in PBS, 4 min): 1 | HSV - CPE after 44 hours with the detecting cell-layer ([4]; 70% alcohol in PBS, 8 min): 1 and 0 | HSV - CPE after 44 hours with the detecting cell-layer ([4]; 70% alcohol in PBS, 16 min): 1 | HSV - CPE after 44 hours with the detecting cell-layer ([4]; 70% alcohol in PBS, 32 min): 0 and 2 | HSV - CPE after 44 hours with the detecting cell-layer ([4]; 80% alcohol in PBS, 2 min): 1 | HSV - CPE after 44 hours with the detecting cell-layer ([4]; 80% alcohol in PBS, 4 min): 0 and 1 | HSV - CPE after 44 hours with the detecting cell-layer ([4]; 80% alcohol in PBS, 8 min): 1 | HSV - CPE after 44 hours with the detecting cell-layer ([4]; 80% alcohol in PBS, 16 min): 0 and 1 | HSV - CPE after 44 hours with the detecting cell-layer ([4]; 80% alcohol in PBS, 32 min): 1 and 3 | HSV - CPE after 44 hours with the detecting cell-layer ([4]; 90% alcohol in PBS, 2 min): 0 and 1 | HSV - CPE after 44 hours with the detecting cell-layer ([4]; 90% alcohol in PBS, 4 min): 0 | HSV - CPE after 44 hours with the detecting cell-layer ([4]; 90% alcohol in PBS, 8 min): 0 | HSV - CPE after 44 hours with the detecting cell-layer ([4]; 90% alcohol in PBS, 16 min): 0 | HSV - CPE after 44 hours with the detecting cell-layer ([4]; 90% alcohol in PBS, 32 min): 0 | HSV - CPE after 44 hours with the detecting cell-layer ([4]; 96% alcohol in PBS, 2 min): 0 | HSV - CPE after 44 hours with the detecting cell-layer ([4]; 96% alcohol in PBS, 4 min): 0 | HSV - CPE after 44 hours with the detecting cell-layer ([4]; 96% alcohol in PBS, 8 min): 0 | HSV - CPE after 44 hours with the detecting cell-layer ([4]; 96% alcohol in PBS, 16 min): 0 | HSV - CPE after 44 hours with the detecting cell-layer ([4]; 96% alcohol in PBS, 32 min): 0 | inactivation of herpes simplex virus (in words) [4]: able to inactivate herpes simplex virus even intracellular virus | HSV - CPE after 44 hours with the detecting cell-layer [4, 6]: 0 | HSV - CPE after 44 hours with the detecting cell-layer ([4]; alcohol undiluted, 4 min): 0 | HSV - CPE after 44 hours with the detecting cell-layer ([4]; alcohol undiluted, 8 min): 0 | HSV - CPE after 44 hours with the detecting cell-layer ([4]; alcohol undiluted, 16 min): 0 | HSV - CPE after 44 hours with the detecting cell-layer ([4]; alcohol undiluted, 32 min): 0

CCO [Ethanol 99%]
pain reaction on application in the ulceration phase [1]: slight pain of short duration | eruption abortive effect [2]: clearly observed | eruption shortening effect [2]: likewise observed | symptom relief [2]: very strong symptom relief | abortive effect ([3]; early phase and vesicular phase): some abortive effect | symptom relief [3]: palliative effect on symptom relief

CO [Methanol]
HSV - CPE after 44 hours with the detecting cell-layer ([4]; 50% alcohol in PBS, 2 min): 1 and 0 | HSV - CPE after 44 hours with the detecting cell-layer ([4]; 50% alcohol in PBS, 4 min): 1 | HSV - CPE after 44 hours with the detecting cell-layer ([4]; 50% alcohol in PBS, 8 min): 1 and 2 | HSV - CPE after 44 hours with the detecting cell-layer ([4]; 50% alcohol in PBS, 16 min): 2 | HSV - CPE after 44 hours with the detecting cell-layer ([4]; 50% alcohol in PBS, 32 min): 1 | HSV - CPE after 44 hours with the detecting cell-layer ([4]; 60% alcohol in PBS, 2 min): 1 | HSV - CPE after 44 hours with the detecting cell-layer ([4]; 60% alcohol in PBS, 4 min): 0 and 1 | HSV - CPE after 44 hours with the detecting cell-layer ([4]; 60% alcohol in PBS, 8 min): 1 | HSV - CPE after 44 hours with the detecting cell-layer ([4]; 60% alcohol in PBS, 16 min): 0 and 1 | HSV - CPE after 44 hours with the detecting cell-layer ([4]; 60% alcohol in PBS, 32 min): 1 | HSV - CPE after 44 hours with the detecting cell-layer ([4]; 70% alcohol in PBS, 2 min): 1 | HSV - CPE after 44 hours with the detecting cell-layer ([4]; 70% alcohol in PBS, 4 min): 1 | HSV - CPE after 44 hours with the detecting cell-layer ([4]; 70% alcohol in PBS, 8 min): 1 | HSV - CPE after 44 hours with the detecting cell-layer ([4]; 70% alcohol in PBS, 16 min): 1 | HSV - CPE after 44 hours with the detecting cell-layer ([4]; 70% alcohol in PBS, 32 min): 0 and 1 | HSV - CPE after 44 hours with the detecting cell-layer ([4]; 80% alcohol in PBS, 2 min): 1 | HSV - CPE after 44 hours with the detecting cell-layer ([4]; 80% alcohol in PBS, 4 min): 0 | HSV - CPE after 44 hours with the detecting cell-layer ([4]; 80% alcohol in PBS, 8 min): 1 | HSV - CPE after 44 hours with the detecting cell-layer ([4]; 80% alcohol in PBS, 16 min): 0 and 1 | HSV - CPE after 44 hours with the detecting cell-layer ([4]; 80% alcohol in PBS, 32 min): 1 and 0 | HSV - CPE after 44 hours with the detecting cell-layer ([4]; 90% alcohol in PBS, 2 min): 0 | HSV - CPE after 44 hours with the detecting cell-layer ([4]; 90% alcohol in PBS, 4 min): 0 | HSV - CPE after 44 hours with the detecting cell-layer ([4]; 90% alcohol in PBS, 8 min): 0 and 1 | HSV - CPE after 44 hours with the detecting cell-layer ([4]; 90% alcohol in PBS, 16 min): 1 | HSV - CPE after 44 hours with the detecting cell-layer ([4]; 90% alcohol in PBS, 32 min): 1 and 0 | HSV - CPE after 44 hours with the detecting cell-layer ([4]; 96% alcohol in PBS, 2 min): 0 | HSV - CPE after 44 hours with the detecting cell-layer ([4]; 96% alcohol in PBS, 4 min): 0 | HSV - CPE after 44 hours with the detecting cell-layer ([4]; 96% alcohol in PBS, 8 min): 0 | HSV - CPE after 44 hours with the detecting cell-layer ([4]; 96% alcohol in PBS, 16 min): 0 and 1 | HSV - CPE after 44 hours with the detecting cell-layer ([4]; 96% alcohol in PBS, 32 min): 1 and 0 | inactivation of herpes simplex virus (in words) [4]: able to inactivate herpes simplex virus even intracellular virus | HSV - CPE after 44 hours with the detecting cell-layer [4, 6]: 0 | HSV - CPE after 44 hours with the detecting cell-layer ([4]; alcohol undiluted, 4 min): 0 | HSV - CPE after 44 hours with the detecting cell-layer ([4]; alcohol undiluted, 8 min): 0 | HSV - CPE after 44 hours with the detecting cell-layer ([4]; alcohol undiluted, 16 min): 0 | HSV - CPE after 44 hours with the detecting cell-layer ([4]; alcohol undiluted, 32 min): 0

CCO [Ethanol]
HSV - CPE after 44 hours with the detecting cell-layer ([4]; 50% alcohol in PBS, 2 min): 3 | HSV - CPE after 44 hours with the detecting cell-layer ([4]; 50% alcohol in PBS, 4 min): 3 | HSV - CPE after 44 hours with the detecting cell-layer ([4]; 50% alcohol in PBS, 8 min): 3 | HSV - CPE after 44 hours with the detecting cell-layer ([4]; 50% alcohol in PBS, 16 min): 3 | HSV - CPE after 44 hours with the detecting cell-layer ([4]; 50% alcohol in PBS, 32 min): 3 | HSV - CPE after 44 hours with the detecting cell-layer ([4]; 60% alcohol in PBS, 2 min): 3 | HSV - CPE after 44 hours with the detecting cell-layer ([4]; 60% alcohol in PBS, 4 min): 3 | HSV - CPE after 44 hours with the detecting cell-layer ([4]; 60% alcohol in PBS, 8 min): 3 | HSV - CPE after 44 hours with the detecting cell-layer ([4]; 60% alcohol in PBS, 16 min): 3 | HSV - CPE after 44 hours with the detecting cell-layer ([4]; 60% alcohol in PBS, 32 min): 3 | HSV - CPE after 44 hours with the detecting cell-layer ([4]; 70% alcohol in PBS, 2 min): 3 | HSV - CPE after 44 hours with the detecting cell-layer ([4]; 70% alcohol in PBS, 4 min): 3 | HSV - CPE after 44 hours with the detecting cell-layer ([4]; 70% alcohol in PBS, 8 min): 3 | HSV - CPE after 44 hours with the detecting cell-layer ([4]; 70% alcohol in PBS, 16 min): 3 | HSV - CPE after 44 hours with the detecting cell-layer ([4]; 70% alcohol in PBS, 32 min): 3 | HSV - CPE after 44 hours with the detecting cell-layer ([4]; 80% alcohol in PBS, 2 min): 2 | HSV - CPE after 44 hours with the detecting cell-layer ([4]; 80% alcohol in PBS, 4 min): 2 | HSV - CPE after 44 hours with the detecting cell-layer ([4]; 80% alcohol in PBS, 8 min): 2 | HSV - CPE after 44 hours with the detecting cell-layer ([4]; 80% alcohol in PBS, 16 min): 2 | HSV - CPE after 44 hours with the detecting cell-layer ([4]; 80% alcohol in PBS, 32 min): 2 | HSV - CPE after 44 hours with the detecting cell-layer ([4]; 90% alcohol in PBS, 2 min): 1 | HSV - CPE after 44 hours with the detecting cell-layer ([4]; 90% alcohol in PBS, 4 min): 1 and 0 | HSV - CPE after 44 hours with the detecting cell-layer ([4]; 90% alcohol in PBS, 8 min): 0 | HSV - CPE after 44 hours with the detecting cell-layer ([4]; 90% alcohol in PBS, 16 min): 0 | HSV - CPE after 44 hours with the detecting cell-layer ([4]; 90% alcohol in PBS, 32 min): 0 | HSV - CPE after 44 hours with the detecting cell-layer ([4]; 96% alcohol in PBS, 2 min): 1 | HSV - CPE after 44 hours with the detecting cell-layer ([4]; 96% alcohol in PBS, 4 min): 1 and 0 | HSV - CPE after 44 hours with the detecting cell-layer ([4]; 96% alcohol in PBS, 8 min): 0 | HSV - CPE after 44 hours with the detecting cell-layer ([4]; 96% alcohol in PBS, 16 min): 0 | HSV - CPE after 44 hours with the detecting cell-layer ([4]; 96% alcohol in PBS, 32 min): 0 | inactivation of herpes simplex virus (in words) [4]: able to inactivate herpes simplex virus even intracellular virus | HSV - CPE after 44 hours with the detecting cell-layer [4, 6]: 0 | HSV - CPE after 44 hours with the detecting cell-layer ([4]; alcohol undiluted, 4 min): 0 | HSV - CPE after 44 hours with the detecting cell-layer ([4]; alcohol undiluted, 8 min): 0 | HSV - CPE after 44 hours with the detecting cell-layer ([4]; alcohol undiluted, 16 min): 0 | HSV - CPE after 44 hours with the detecting cell-layer ([4]; alcohol undiluted, 32 min): 0

Nc1nc2c(ncn2COCCO)c(=O)[nH]1 [Topical acyclovir, acyclovir]
effectiveness in recurrent herpes genitalia / labialis [5]: not effective

— patent publication US6342537B1, “Gel for treatment of skin diseases and for disinfection of the skin” (priority 1994, dated 2002)
